Series [1] has as its system HFD model in C57BL/6J mice. Put plainly: HPLC-MS analysis of plasma cholesterol, cholesterol-ester and triglycerides in HFD mice. Type of series: in vivo. The note with it: 50 mg/kg. An excerpt:
Male C57BL/6J mice were purchased from Jackson Laboratory (Bar Harbor, ME, USA). Mice were acclimated for a week before being randomized to receive either a low-fat diet (LFD) or a high-fat diet (HFD) purchased from Research Diets (New Brunswick, NJ, USA). Obesity was induced by the HFD (D12492, with 60% of the adjusted calories derived from fat) for 16 weeks beginning at age of 8 weeks. Age-matched controls were maintained on a LFD (D12450J, matching the sucrose level of D12492). While maintaining the diet, mice under HFD were divided into 4 groups (n=8 per group) and were treated every 2 days by oral gavage for 7 weeks with 100 μl of 11D3 (50 mg/kg), 11U3 (50 mg/kg), or 11U3-2M (50 mg/kg) formulated in a solution of 2:1 of polyethylene glycol (Fisher Scientific, PEG400 #p167-1) and saline, containing 1.5% of octanoic acid (TCI, #00027). Control groups received 100 μl of PEG400/saline/octanoic acid as the vehicle (Veh). LFD mice were divided into 2 groups (n=8 per group) and treated with veh or 11D3 (50 mg/kg) to detect any effect of natural FuFA in LFD. Mice were grouped to start at the same weight mean before starting the treatment. During and before gavage treatment, mice were fed ad libitum and given free access to water. Food intake, water consumption, and mouse weight were monitored every week. At 20 weeks (4 weeks of treatment), a glucose tolerance test (GTT) was performed on all cohorts. After 2 weeks of recovery (22 weeks), a whole-body composition was performed using EchoMRI™-100H. At the end of the 23 weeks study, mice were euthanized with isoflurane followed by laparotomy. The blood was collected, and mice were perfused using 0.9% NaCl. Organs were harvested and snap-frozen in liquid nitrogen gas and stored at −80° C. for further analysis. […]
Plasma TG were analyzed by HPLC-HR-MS/MS using a C8 Luna column (2×150 mm, 5 μm, Phenomenex) with a flow rate of […] and mobile phases of acetonitrile/water (9:1, v/v) 0.1% ammonium acetate (solvent A) and isopropanol/acetonitrile 0.1% ammonium acetate (7:3, v/v) (solvent B). […]

For a further series, the system named is liver gene expression. Put plainly: RT-qPCR of liver genes. The class given is in vivo, mice. The note with it: liver RT-qPCR vs HFD+veh. The method, then: Total RNA was extracted using 50 mg of frozen liver powder. The powder was homogenized in 1 mL of TRIzol solution (Invitrogen, #15-596-026) and 200 μl of chloroform, shaken vigorously for 15 seconds, and incubate at RT for 2-3 min. Lysates were centrifuged at 12000 g for 15 min at 4° C. The upper aqueous phase was transferred in a new ice-cold tube and diluted with 500 μl of ice-cold isopropyl alcohol and incubate at RT for 10 min. Tubes were centrifuged at 12000 g for 10 min at 4° C. The RNA pellet was washed twice using ice-cold 75% ethanol and centrifugation for 5 min at 7500 g at 4° C. The RNA pellet was dissolved in RNase-free H2O and the concentration was measured using Nanodrop 2000 (Thermo Fisher Scientific). […] The RNA sample (1 μg) was subjected to reverse transcription with the iScript cDNA synthesis kit. The TaqMan gene expression assays-on-demand system (Applied Biosystems, Foster City, CA, USA) was used for gene expression assessment by quantitative PCR (qPCR) using GAPDH as housekeeping gene using the comparative Ct method.
(Real-time PCR tracks product formation cycle by cycle.)

The nature of series [2]: FuFA-CoA detection in liver by mass spectrometry. The class given is in vivo. The note with it: livers of FuFA-treated HFD mice. The method, then: Liver powder (50 mg) was used and dissolved in plastic Eppendorf with […] of milli-Q purified water and vortexed well. Then, 200 μl of ACN containing 400 nM n-Heptadecanoyl coenzyme A lithium salt as internal standard (C17-CoA standard, NuCheck) was added, vortexed thoroughly, and centrifuged for 4 min at 10000 g at 4° C. For protein precipitation, the supernatant was transferred to a new tube and 20 μl was diluted with 180 μl of ACN/water (4:1 ratio) in clean mass spectrometry vials for analysis of CoA's.
FuFA-CoA in liver and primary hepatocytes were detected with an API 5000™ mass spectrometer after chromatographic separation using a 150×2 mm Luna® 5 μm C8 100 C8 Å LC column (OOF-4040-BO) with 5% solvent B (ACN, 0.1% ammonium) at a flow rate of 0.35 ml/min using a system solvent started in 5% solvent B (ACN, 0.1% ammonium hydroxide) and 95% of solvent A(water+0.1% ammonium hydroxide) for 30 seconds, followed by an increase from 5-65% gradient of solvent B over 6 min, followed by re equilibrate condition. Quantitation of analyte and internal standard peak areas was determined using the Quantitation Wizard in Sciex's Analyst® Software.

Take `CCCc1ccc(CCCCCCCCCC(C)(C)C(=O)O)o1` [11U3-2M, 2,2-Dimethyl-11-(5-propylfuran-2-yl)undecanoic acid]: in series [1], the “plasma TC compared to HFD+veh” value was “reduction”, the “plasma TG reduced vs HFD+veh” value is on record as 16% and the “plasma total cholesterol-ester (TCE) reduced vs HFD+veh” value came out at 33%. In addition, in the series with liver gene expression, the “LncRNA GM10804 decreased” value is 3.3 fold, the “LncRNA GM15441 increased” value is recorded as 320 fold and the PDK4 increase is given as 9.3 fold. The “FuFA-CoA conjugate in liver (ratio to C17:0-CoA)” value in series [2] is on record as “significantly elevated”.

Values taken from patent US20250361217A1, “FATTY ACID COMPOUNDS” (University of Pittsburgh - Of the Commonwealth System of …, priority 2022, published 2025).
